Results from PubChem BioAssay (NCI).
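96-well plates; 48 h exposure; 5 concentrations. Endpoints by linear interpolation between flanking doses. Not reached: highest tested concentration assigned. TGI denotes the concentration required for complete inhibition of growth.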

Key:
Experiment in all cases: DTP human tumour cell line panel, 48 h
786-0 renal = test system: 786-0 renal
A498 renal = test system: A498 renal
A549 NSCLC = test system: A549 NSCLC
ACHN renal = test system: ACHN renal
BT-549 breast = test system: BT-549 breast
CAKI-1 renal = test system: CAKI-1 renal
CCRF-CEM leukemia = test system: CCRF-CEM leukemia
COLO 205 colon = test system: COLO 205 colon
EKVX NSCLC = test system: EKVX NSCLC
HCT-116 colon = test system: HCT-116 colon
HCT-15 colon = test system: HCT-15 colon
HOP-62 NSCLC = test system: HOP-62 NSCLC
HOP-92 NSCLC = test system: HOP-92 NSCLC
HS 578T breast = test system: HS 578T breast
HT29 colon = test system: HT29 colon
IGROV1 ovarian = test system: IGROV1 ovarian
K-562 leukemia = test system: K-562 leukemia
KM12 colon = test system: KM12 colon
LOX IMVI melanoma = test system: LOX IMVI melanoma
M14 melanoma = test system: M14 melanoma
MALME-3M melanoma = test system: MALME-3M melanoma
MCF7 breast = test system: MCF7 breast
MDA-MB-231 breast = test system: MDA-MB-231 breast
MDA-MB-435 = test system: MDA-MB-435
MDA-N = test system: MDA-N
MOLT-4 leukemia = test system: MOLT-4 leukemia
NCI-H226 lung = test system: NCI-H226 lung
NCI-H23 lung = test system: NCI-H23 lung
NCI-H460 lung = test system: NCI-H460 lung
OVCAR-3 ovarian = test system: OVCAR-3 ovarian
OVCAR-4 ovarian = test system: OVCAR-4 ovarian
OVCAR-5 ovarian = test system: OVCAR-5 ovarian
OVCAR-8 ovarian = test system: OVCAR-8 ovarian
PC-3 prostate = test system: PC-3 prostate
RPMI-8226 leukemia = test system: RPMI-8226 leukemia
RXF 393 renal = test system: RXF 393 renal
SF-268 CNS = test system: SF-268 CNS
SF-295 CNS = test system: SF-295 CNS
SF-539 CNS = test system: SF-539 CNS
SK-MEL-2 melanoma = test system: SK-MEL-2 melanoma
SK-MEL-28 melanoma = test system: SK-MEL-28 melanoma
SK-MEL-5 melanoma = test system: SK-MEL-5 melanoma
SK-OV-3 ovarian = test system: SK-OV-3 ovarian
SN12C renal = test system: SN12C renal
SNB-19 CNS = test system: SNB-19 CNS
SNB-75 CNS = test system: SNB-75 CNS
SR leukemia = test system: SR leukemia
SW-620 colon = test system: SW-620 colon
T-47D breast = test system: T-47D breast
TK-10 renal = test system: TK-10 renal
U251 CNS = test system: U251 CNS
UACC-257 melanoma = test system: UACC-257 melanoma
UACC-62 melanoma = test system: UACC-62 melanoma
UO-31 renal = test system: UO-31 renal
DU-145 prostate = test system: DU-145 prostate
HL-60(TB) leukemia = test system: HL-60(TB) leukemia
NCI-H522 lung = test system: NCI-H522 lung
NCI/ADR-RES ovarian = test system: NCI/ADR-RES ovarian

Cc1nn(C(=O)c2ccccc2O)c2c1C(c1ccc3ccccc3c1O)SC(N)=N2 (stereo not given)
TGI (786-0 renal): > 10 µM
TGI (A498 renal): > 10 µM
TGI (A549 NSCLC): > 10 µM
TGI (ACHN renal): > 10 µM
TGI (BT-549 breast): > 10 µM
TGI (CAKI-1 renal): > 10 µM
TGI (CCRF-CEM leukemia): > 10 µM
TGI (COLO 205 colon): > 10 µM
TGI (EKVX NSCLC): > 10 µM
TGI (HCT-116 colon): > 10 µM
TGI (HCT-15 colon): > 10 µM
TGI (HOP-62 NSCLC): > 10 µM
TGI (HOP-92 NSCLC): 4.03 µM
TGI (HS 578T breast): > 10 µM
TGI (HT29 colon): > 10 µM
TGI (IGROV1 ovarian): > 10 µM
TGI (K-562 leukemia): > 10 µM
TGI (KM12 colon): > 10 µM
TGI (LOX IMVI melanoma): > 10 µM
TGI (M14 melanoma): > 10 µM
TGI (MALME-3M melanoma): > 10 µM
TGI (MCF7 breast): 7.32 µM
TGI (MDA-MB-231 breast): > 10 µM
TGI (MDA-MB-435): > 10 µM
TGI (MDA-N): > 10 µM
TGI (MOLT-4 leukemia): > 10 µM
TGI (NCI-H226 lung): > 10 µM
TGI (NCI-H23 lung): > 10 µM
TGI (NCI-H460 lung): > 10 µM
TGI (OVCAR-3 ovarian): 9.61 µM
TGI (OVCAR-4 ovarian): > 10 µM
TGI (OVCAR-5 ovarian): > 10 µM
TGI (OVCAR-8 ovarian): > 10 µM
TGI (PC-3 prostate): > 10 µM
TGI (RPMI-8226 leukemia): > 10 µM
TGI (RXF 393 renal): > 10 µM
TGI (SF-268 CNS): > 10 µM
TGI (SF-295 CNS): > 10 µM
TGI (SF-539 CNS): > 10 µM
TGI (SK-MEL-2 melanoma): > 10 µM
TGI (SK-MEL-28 melanoma): > 10 µM
TGI (SK-MEL-5 melanoma): 4.76 µM
TGI (SK-OV-3 ovarian): > 10 µM
TGI (SN12C renal): > 10 µM
TGI (SNB-19 CNS): > 10 µM
TGI (SNB-75 CNS): > 10 µM
TGI (SR leukemia): > 10 µM
TGI (SW-620 colon): > 10 µM
TGI (T-47D breast): 8.93 µM
TGI (TK-10 renal): > 10 µM
TGI (U251 CNS): > 10 µM
TGI (UACC-257 melanoma): > 10 µM
TGI (UACC-62 melanoma): 4.63 µM
TGI (UO-31 renal): > 10 µM

CN(CCCCCl)P(=O)(OCC1=CC(=O)c2ccccc2C1=O)OC[C@H]1O[C@@H](n2cc(F)c(=O)[nH]c2=O)C[C@@H]1O (stereo not given in full)
TGI (786-0 renal): 18.3 µM
TGI (A549 NSCLC): 0.553 µM
TGI (ACHN renal): 14.7 µM
TGI (BT-549 breast): 22.3 µM
TGI (CAKI-1 renal): 0.627 µM
TGI (CCRF-CEM leukemia): 29.4 µM
TGI (COLO 205 colon): > 26 µM
TGI (DU-145 prostate): 5.53 µM
TGI (EKVX NSCLC): 21.2 µM
TGI (HCT-116 colon): 13.5 µM
TGI (HCT-15 colon): 20.3 µM
TGI (HL-60(TB) leukemia): 16.5 µM
TGI (HOP-62 NSCLC): 22.6 µM
TGI (HS 578T breast): 0.603 µM
TGI (HT29 colon): 34.4 µM
TGI (IGROV1 ovarian): 14.3 µM
TGI (K-562 leukemia): 40.9 µM
TGI (KM12 colon): 22.3 µM
TGI (LOX IMVI melanoma): 10.7 µM
TGI (M14 melanoma): 3.52 µM
TGI (MALME-3M melanoma): 2.79 µM
TGI (MCF7 breast): 8.68 µM
TGI (MDA-MB-231 breast): 19.3 µM
TGI (MDA-MB-435): 2.21 µM
TGI (MDA-N): 2.19 µM
TGI (MOLT-4 leukemia): 32.2 µM
TGI (NCI-H226 lung): 21 µM
TGI (NCI-H23 lung): 5.07 µM
TGI (NCI-H460 lung): 7.9 µM
TGI (NCI-H522 lung): 10.9 µM
TGI (OVCAR-3 ovarian): 12.8 µM
TGI (OVCAR-4 ovarian): 14.9 µM
TGI (OVCAR-5 ovarian): 25.2 µM
TGI (OVCAR-8 ovarian): 15.7 µM
TGI (PC-3 prostate): 18.8 µM
TGI (RPMI-8226 leukemia): 21.8 µM
TGI (RXF 393 renal): 2.78 µM
TGI (SF-268 CNS): 12.6 µM
TGI (SF-295 CNS): 0.452 µM
TGI (SK-MEL-2 melanoma): 23.4 µM
TGI (SK-MEL-28 melanoma): 23.8 µM
TGI (SK-MEL-5 melanoma): 0.647 µM
TGI (SK-OV-3 ovarian): > 42.8 µM
TGI (SN12C renal): 1.21 µM
TGI (SNB-19 CNS): > 40.6 µM
TGI (SNB-75 CNS): 0.418 µM
TGI (SR leukemia): 28.9 µM
TGI (SW-620 colon): 23.1 µM
TGI (T-47D breast): 3.65 µM
TGI (TK-10 renal): 17.7 µM
TGI (U251 CNS): 18.4 µM
TGI (UACC-257 melanoma): 24 µM
TGI (UACC-62 melanoma): 1.93 µM
TGI (UO-31 renal): 15.9 µM

Cc1ccc(S(=O)(=O)NC(=O)NC(C(=O)O)C(C)C)cc1 (stereo not given)
TGI (786-0 renal): > 100 µM
TGI (A549 NSCLC): > 100 µM
TGI (ACHN renal): > 100 µM
TGI (BT-549 breast): > 100 µM
TGI (CCRF-CEM leukemia): > 100 µM
TGI (COLO 205 colon): > 100 µM
TGI (DU-145 prostate): > 100 µM
TGI (HCT-116 colon): > 100 µM
TGI (HCT-15 colon): > 100 µM
TGI (HL-60(TB) leukemia): > 100 µM
TGI (HOP-62 NSCLC): > 100 µM
TGI (HOP-92 NSCLC): > 100 µM
TGI (HS 578T breast): > 100 µM
TGI (HT29 colon): > 100 µM
TGI (IGROV1 ovarian): > 100 µM
TGI (K-562 leukemia): > 100 µM
TGI (KM12 colon): > 100 µM
TGI (LOX IMVI melanoma): > 100 µM
TGI (M14 melanoma): > 100 µM
TGI (MALME-3M melanoma): > 100 µM
TGI (MCF7 breast): > 100 µM
TGI (MDA-MB-231 breast): > 100 µM
TGI (MDA-N): > 100 µM
TGI (MOLT-4 leukemia): > 100 µM
TGI (NCI-H23 lung): > 100 µM
TGI (NCI-H460 lung): > 100 µM
TGI (NCI-H522 lung): > 100 µM
TGI (NCI/ADR-RES ovarian): > 100 µM
TGI (OVCAR-4 ovarian): > 100 µM
TGI (OVCAR-5 ovarian): > 100 µM
TGI (OVCAR-8 ovarian): > 100 µM
TGI (PC-3 prostate): > 100 µM
TGI (RPMI-8226 leukemia): > 100 µM
TGI (RXF 393 renal): > 100 µM
TGI (SF-268 CNS): > 100 µM
TGI (SF-295 CNS): > 100 µM
TGI (SF-539 CNS): > 100 µM
TGI (SK-MEL-2 melanoma): > 100 µM
TGI (SK-MEL-28 melanoma): > 100 µM
TGI (SK-MEL-5 melanoma): > 100 µM
TGI (SK-OV-3 ovarian): > 100 µM
TGI (SN12C renal): > 100 µM
TGI (SNB-19 CNS): > 100 µM
TGI (SNB-75 CNS): > 100 µM
TGI (SR leukemia): > 100 µM
TGI (SW-620 colon): > 100 µM
TGI (T-47D breast): > 100 µM
TGI (TK-10 renal): > 100 µM
TGI (U251 CNS): > 100 µM
TGI (UACC-257 melanoma): > 100 µM
TGI (UACC-62 melanoma): > 100 µM
TGI (UO-31 renal): > 100 µM
